For assay [1], the target named is T1, terbium chelate-labeled menin / FITC-MBM1 peptide (Menin/MLL) (Homo sapiens, UniProt O00255, T541A).
T1 construct: Menin (a. a. l-610-6×his tag) was labeled with terbium cryptate as follows
T1 sequence (O00255 with tags, fused parts or gaps T541A): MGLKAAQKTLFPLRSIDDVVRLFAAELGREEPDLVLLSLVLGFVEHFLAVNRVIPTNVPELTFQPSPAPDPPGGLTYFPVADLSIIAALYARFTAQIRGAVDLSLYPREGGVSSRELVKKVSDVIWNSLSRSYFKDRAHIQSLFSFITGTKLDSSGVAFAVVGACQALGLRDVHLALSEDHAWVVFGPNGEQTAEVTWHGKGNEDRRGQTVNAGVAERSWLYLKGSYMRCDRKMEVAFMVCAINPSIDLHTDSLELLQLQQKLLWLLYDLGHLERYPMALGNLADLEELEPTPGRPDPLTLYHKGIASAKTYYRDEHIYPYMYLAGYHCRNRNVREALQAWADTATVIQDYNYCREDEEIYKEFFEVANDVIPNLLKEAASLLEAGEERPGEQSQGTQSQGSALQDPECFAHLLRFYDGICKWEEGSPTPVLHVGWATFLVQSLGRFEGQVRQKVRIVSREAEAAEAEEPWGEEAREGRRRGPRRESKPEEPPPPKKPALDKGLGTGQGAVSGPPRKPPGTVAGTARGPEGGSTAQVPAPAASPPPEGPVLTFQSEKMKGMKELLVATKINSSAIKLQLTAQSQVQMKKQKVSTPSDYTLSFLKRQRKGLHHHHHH
Briefly: Menin/MLL homogenous time-resolved fluorescence (HTRF) assay. In kind it is binding. Conditions: read-out: (2) Menin HTRF assay (IC50 (nM)). The method, then: 2) Menin/MLL Homogenous Time-Resolved Fluorescence (HTRF) Assay
To an untreated, white 384-well microtiter plate was added 40 nL 200× test compound in DMSO and 4 μL 2× terbium chelate-labeled menin (vide infra for preparation) in assay buffer (40 mM Tris .HCl, pH 7.5, 50 mM NaCl, 1 mM DTT and 0.05% Pluronic F-127). After incubation of test compound and terbium chelate-labeled menin for 5 min at ambient temperature, 4 μL 2×FITC-MBM1 peptide (FITC-P-alanine-SARWRFPARPGT-NH2) in assay buffer was added, the microtiter plate centrifuged at 1000 rpm for 1 min and the assay mixtures incubated for 15 min at ambient temperature. The relative amount of menin ⋅FITC-MBM1 complex present in an assay mixture is determined by measuring the homogenous time-resolved fluorescence (HTRF) of the terbium/FITC donor/acceptor fluorphore pair using a BMG Pherastar plate reader (ex. 337 nm/terbium cm. 490 nm/FITC cm. 520 nm) at ambient temperature. The degree of fluorescence resonance energy transfer (the HTRF value) is expressed as the ratio of the fluorescence emission intensities of the FITC and terbium fluorophores (P^m 520 nm//F^em 490 nm). The final concentrations of reagents in the binding assay are 100 pM terbium chelate-labeled menin, 75 nM FITC-MBM1 peptide and 0.5%) DMSO in assay buffer. Dose-response titrations of test compounds are conducted using an 11 point, three-fold serial dilution scheme, starting typically at 25 μM.
Compound potencies were determined by first calculating % inhibition at each compound concentration according to equation 1: % inhibition=((HC−LC)−(HTRF^compound−LC))/(HC−LC))*100 (Eqn 1)
Where LC and HC are the HTRF values of the assay in the presence or absence of a saturating concentration of a compound that competes with FITC-MBM1 for binding to menin, and HTRF^compound is the measured HTRF value in the presence of the test compound. HC and LC HTRF values represent an average of at least 16 replicates per plate.
Where Bottom and Top are the lower and upper asymptotes of the dose-response curve, respectively, IC50 is the concentration of compound that yields 50% inhibition of signal and h is the Hill coefficient.
Preparation of Terbium cryptate labeling of Menin: Menin (a. a. l-610-6×his tag) was labeled with terbium cryptate as follows. 2 mg of Menin was buffer exchanged into 1× phosphate buffered saline. 16 uM Menin was incubated with 4-fold molar excess NHS-terbium cryptate (Cisbio Bioassays, Bedford, Mass.) for 2 hours at room temperature. The labeled protein was purified away from free label by running the reaction over a Superdex 200 Increase 10/300 GL column at 0.75 ml/min. Peak fractions were collected, aliquoted and frozen at −80° C.

The subject of a further assay is MV-4-1 1 cells (MLL-AF4). Kind of assay: Proliferation assay (spheroid-like growth, 8 d, live-cell imaging), MV-4-11. Conditions: Homo sapiens, MV4-11, 192 h, MV-4-11 cells, absolute IC50 from AUC of confluence, read-out: (3) Spheroid assay MV-4-11 (IC50 (μM)). The class given is cell-based, human. The method, then: The anti-proliferative effect of menin/MLL protein/protein interaction inhibitor test compounds was assessed in human leukemia cell lines. The cell lines MV-4-1 1 and MOLM14 harbor MEL translocations and express the MEL fusion proteins MLL-AF4 and MLL-AF9, respectively, as well as the wildtype protein from the second allele. […] K562 was used as a control cell line containing two MLL wildtype alleles in order to exclude compounds that display general cytotoxic effects.
MV-4-1 1 and MOLM14 were cultured in RPMI-1640 (Sigma Aldrich) supplemented with 10% fetal bovine serum (HyClone), 2 mM L-glutamine (Sigma Aldrich) and 50 μg/ml gentamycin (Gibco). K562 were propagated in RPMI-1640 (Sigma Aldrich) supplemented with 20% fetal bovine serum (HyClone), 2 mM L-glutamine (Sigma Aldrich) and 50 μg/ml gentamycin (Gibco).
In order to assess the anti-proliferative effects, 1,500 MV-4-1 1, 300 MOLM14 or 750 K562 cells were seeded in 200 μl media per well in 96-well round bottom, ultra-low attachment plates (Costar, catalogue number 7007). Cell seeding numbers were chosen based on growth curves to ensure linear growth throughout the experiment. Test compounds were added at different concentrations and the DMSO content was normalized to 0.3%>. Cells were incubated for 8d at 37° C. and 5% C02. Spheroid like growth was monitored in real-time by live-cell imaging (IncuCyteZOOM, Essenbio, 4× objective) acquiring one image every four hours for 8d. Confluence (%) as a measure of spheroid size was determined using an integrated analysis tool.
In order to determine the cumulative effect of the test compounds over time, the area under the curve (AUC) in a plot of confluence against time was calculated. Confluence at the beginning of the experiment (t=0) was used as baseline for the AUC calculation.
Absolute IC50 values were calculated according to the following procedure: % Control=(AUC sample/AUC control)*100 AUC control=mean AUC of control values(cells without compound/DMSO as vehicle control)
A non-linear curve fit was applied using the least squares (ordinary) fit method to the plot of % control versus compound concentration. Based on this, the absolute IC50 value (half maximal inhibitory concentration of the test compound causing an anti-proliferative effect of 50% relative to the vehicle control) was calculated.

For `Cc1ccc(CN[C@H]2CCCN(c3ncnc4sc(CC(F)(F)F)cc34)CC2)c(C)c1` (single isomer, unassigned) [Compound 9B], the 50% inhibitory concentration (IC50) in assay [1] came to 22 nM; in the assay with MV-4-1 1 cells (MLL-AF4), 0.9 µM.
In the same order, the values of `Cn1cc(CNC2CCCN(c3ncnc4sc(CC(F)(F)F)cc34)CC2)cn1` (single isomer, unassigned) [Compound 11A] are 55 nM and 1.6 µM.
Consider `Cn1cncc1CN[C@@H]1CCCN(c2ncnc3sc(CC(F)(F)F)cc23)CC1` (single isomer, unassigned) [Compound 28], for which the figures for the IC50 (in assay [1]; in the assay on MV-4-1 1 cells (MLL-AF4)) were 149 nM and 3.4 µM, respectively.
On the same counts, the results for `FC(F)(F)Cc1cc2c(N3CCC[C@@H](NCc4cccnc4)CC3)ncnc2s1` (single isomer, unassigned) [Compound 29] are 40 nM and 2.1 µM.
For the compound `FC(F)(F)Cc1cc2c(N3CCC[C@@H](NCc4ccnnc4)CC3)ncnc2s1` (single isomer, unassigned) [Compound 30], the IC50 in assay [1] worked out at 186 nM; in the assay on MV-4-1 1 cells (MLL-AF4), 4.45 µM.
Regarding `CC(C)[C@H](N[C@@H]1CCCN(c2ncnc3sc(CC(F)(F)F)cc23)CC1)C1CNC1` (single isomer, unassigned) [Compound 31], the 50% inhibitory concentration (IC50) in assay [1] was determined as 34 nM; in the assay on MV-4-1 1 cells (MLL-AF4), 1.4 µM.
On the same counts, the results for `CC(C)[C@H](NC1CCCN(c2ncnc3sc(CC(F)(F)F)cc23)CC1)C1CNC1` (single isomer, unassigned) [Compound 33] are 27 nM and 2 µM.
On the same counts, the results for `CC(C)[C@@H](NC1CCCN(c2ncnc3sc(CC(F)(F)F)cc23)CC1)C1CNC1` (single isomer, unassigned) [Compound 34] are 216 nM and 3.2 µM.
Consider `CC(C)[C@@H](N[C@H]1CCCN(c2ncnc3sc(CC(F)(F)F)cc23)CC1)C1CNC1` (single isomer, unassigned) [Compound 36], for which the values for the IC50 (in assay [1]; in the assay with MV-4-1 1 cells (MLL-AF4)) were 170 nM and 2.5 µM, respectively.
Regarding `CN(C)CCN(Cc1ccccc1)[C@@H]1CCCN(c2ncnc3sc(CC(F)(F)F)cc23)CC1` (single isomer, unassigned) [Compound 57A], the concentration for half-maximal inhibition (IC50) in assay [1] came out at 194 nM; in the assay with MV-4-1 1 cells (MLL-AF4), 2.8 µM.
For the compound `CN(C)CCN(Cc1ccccc1)[C@H]1CCCN(c2ncnc3sc(CC(F)(F)F)cc23)CC1` (single isomer, unassigned) [Compound 57B], the concentration for half-maximal inhibition (IC50) in assay [1] was 222 nM; in the assay with MV-4-1 1 cells (MLL-AF4), 4.4 µM.
`Cn1cc(CN(Cc2ccccc2)[C@@H]2CCCN(c3ncnc4sc(CC(F)(F)F)cc34)CC2)cn1` (single isomer, unassigned) [Compound 60A]: the IC50 in assay [1] was determined as 493 nM; in the assay with MV-4-1 1 cells (MLL-AF4), 5.5 µM.
In the same order, the values of `Cn1cc(CN(Cc2ccccc2)[C@H]2CCCN(c3ncnc4sc(CC(F)(F)F)cc34)CC2)cn1` (single isomer, unassigned) [Compound 60B] are 295 nM and 2.4 µM.
In the case of `Cn1cc2c(n1)CCC[C@@H]2N[C@@H]1CCCN(c2ncnc3sc(CC(F)(F)F)cc23)CC1` (single isomer, unassigned) [Compound 66B], the half-inhibitory concentration (IC50) is 164 nM in assay [1] and 3.8 µM with MV-4-1 1 cells (MLL-AF4).
With `C[C@H]1CCN(c2ncnc3sc(CC(F)(F)F)cc23)CC[C@H]1NCc1ccccc1` (single isomer, unassigned) [Compound 68A], the 50% inhibitory concentration (IC50) in assay [1] was 103 nM; in the assay on MV-4-1 1 cells (MLL-AF4), 1.9 µM.
In the case of `Fc1ccc(CNC2CCCN(c3ncnc4sc(CC(F)(F)F)cc34)CC2)c(F)c1` (stereo not drawn) [Compound 7], the IC50 was 55 nM in assay [1] and 1.6 µM with MV-4-1 1 cells (MLL-AF4).
In the same order, the values of `Fc1ccccc1CNC1CCCN(c2ncnc3sc(CC(F)(F)F)cc23)CC1` (stereo not drawn) [Compound 8] are 64 nM and 1.6 µM.
As for `Cc1ccc(CNC2CCCN(c3ncnc4sc(CC(F)(F)F)cc34)CC2)c(C)c1` (stereo not drawn) [Compound 9], the concentration for half-maximal inhibition (IC50) was found to be 36 nM in assay [1] and 1.4 µM in the assay on MV-4-1 1 cells (MLL-AF4).
As for `CNCc1cccc(CNC2CCCN(c3ncnc4sc(CC(F)(F)F)cc34)CC2)c1` (stereo not drawn) [Compound 17], the half-inhibitory concentration (IC50) in assay [1] stood at 33 nM; with MV-4-1 1 cells (MLL-AF4), 1.3 µM.
Take `COc1ccc(C)cc1CNC1CCCN(c2ncnc3sc(CC(F)(F)F)cc23)CC1` (stereo not drawn) [Compound 18]: the IC50 in assay [1] turned out to be 563 nM; in the assay on MV-4-1 1 cells (MLL-AF4) it was 4.7 µM.
On the same counts, the results for `Cc1ccccc1CNC1CCCN(c2ncnc3sc(CC(F)(F)F)cc23)CC1` (stereo not drawn) [Compound 19] are 41 nM and 2 µM.
For the compound `Fc1cccc(CNC2CCCN(c3ncnc4sc(CC(F)(F)F)cc34)CC2)c1` (stereo not drawn) [Compound 24], the 50% inhibitory concentration (IC50) in assay [1] stood at 53 nM; with MV-4-1 1 cells (MLL-AF4), 1.2 µM.
In the same order, the values of `FC(F)(F)Cc1cc2c(N3CCCC(OCc4ccccc4)CC3)ncnc2s1` (stereo not drawn) [Compound 44] are 137 nM and 4.3 µM.
Consider `CNC(=O)c1ccc(CNC2CCCN(c3ncnc4sc(CC(F)(F)F)cc34)CC2)cc1` (stereo not drawn) [Compound 49], for which the results for the half-inhibitory concentration (IC50) (in assay [1]; in the assay on MV-4-1 1 cells (MLL-AF4)) were 45 nM and 1.1 µM, respectively.
In the same order, the values of `OCCN(Cc1ccccc1)C1CCCN(c2ncnc3sc(CC(F)(F)F)cc23)CC1` (stereo not drawn) [Compound 50] are 185 nM and 2.3 µM.
As for `CN(C)CCCN(Cc1ccccc1)C1CCCN(c2ncnc3sc(CC(F)(F)F)cc23)CC1` (stereo not drawn) [Compound 53], the IC50 came to 204 nM in assay [1] and 2.1 µM in the assay with MV-4-1 1 cells (MLL-AF4).
On the same counts, the results for `Cn1ncc2c1CCC[C@@H]2N[C@@H]1CCCN(c2ncnc3sc(CC(F)(F)F)cc23)CC1` [Compound 65B] are 284 nM and 4.3 µM.
